Source: US12435087B2, “Modulators of DCN-1 and methods of use thereof” (Cellarity, Inc., priority 2023, dated 2025)
Where two headings read alike, the source gives them in different places.

Molecular target: DCN1 (DCUND1) protein PONY domain (Homo sapiens (Human), UniProt Q96GG9)
Assay: TR-FRET assay (binding to DCN-1, displacement of FAM-labeled probe)
Outline: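 Compounds read at 1, 5 and 24 h, 0.1% final DMSO, by TR-FRET between terbium-streptavidin on biotinylated DCN1 PONY domain (E. coli) and a FAM-tagged non-covalent inhibitor probe. Two setups used, 5 nM protein with 20 nM labelled probe, or 0.31 nM protein with 100 nM labelled plus 800 nM unlabelled probe; buffer had TritonX and 200 mM NaCl. % activity relative to high (with probe) and low (without probe) controls.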

[1] = 24 hr after treatment with compound, read-out: TR FRET IC50 24 hr
[2] = TR FRET IC50 1 hr (nM), 1 hr after treatment with compound
[3] = read-out: TR FRET IC50 1 hr, 1 hr after treatment with compound

Sequence of DCN1 (DCUND1) protein PONY domain (Q96GG9 60-248): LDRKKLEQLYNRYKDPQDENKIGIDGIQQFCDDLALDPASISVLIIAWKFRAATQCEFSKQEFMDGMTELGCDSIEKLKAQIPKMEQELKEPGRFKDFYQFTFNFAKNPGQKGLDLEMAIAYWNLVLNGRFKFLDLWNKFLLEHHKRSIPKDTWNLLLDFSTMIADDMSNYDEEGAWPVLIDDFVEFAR

Row | Structure (SMILES) | IC50 [1] [nM] | IC50 [2] [nM] | IC50 [3] [nM]
1 | C/C=C(\CN1CCN(C2COC2)CC1)C(=O)N(C)Cc1cccc([C@@H]2c3cnn(-c4ccccc4)c3N(CC)C(=O)[C@H]2NC(=O)c2ccn(C(F)(F)F)n2)c1 [Compound I-237, N-((4R,5S)-7-ethyl-4-(3-(((E)-N-methyl-2-((4-(oxetan-3-yl)piperazin-1-yl)methyl)but-2-enamido)methyl)phenyl)-6-oxo-1-phenyl-4,5,6,7-tetrahydro-1H-pyrazolo[3,4-b]pyridin-5-yl)-1-(trifluoromethyl)-1H-pyrazole-3-carboxamide] | 200 to 1000 | 1000 to 3000 | 
2 | CCN1C(=O)[C@@H](NC(=O)c2cccc(C(F)(F)F)c2)[C@H](c2cccc(CN(C)C/C=C/C(=O)OC(C)(C)C)c2)c2cnn(-c3ccccc3)c21 [Compound I-238, tert-butyl (E)-4-((3-((4R,5S)-7-ethyl-6-oxo-1-phenyl-5-(3-(trifluoromethyl)benzamido)-4,5,6,7-tetrahydro-1H-pyrazolo[3,4-b]pyridin-4-yl)benzyl)(methyl)amino)but-2-enoate] | 1000 to 3000 | 1000 to 3000 | 
3 | C=C(CN(C)C1COC1)C(=O)N(C)Cc1cccc([C@@H]2c3cnn(-c4ccccc4)c3N(CC)C(=O)[C@H]2NC(=O)c2ccn(C3CC3)n2)c1 [Compound I-239] |  | 1000 to 3000 | 
4 | C/C=C(\CN1CCOCC1)C(=O)NCc1cccc([C@@H]2c3cnn(-c4ccccc4)c3N(CC)C(=O)[C@H]2NC(=O)c2ccn(C3CC3)n2)c1 [Compound I-241] | ≤ 200 | 1000 to 3000 | 
5 | C/C=C(\CN1CC2(COC2)C1)C(=O)NCc1cccc([C@@H]2c3cnn(-c4ccccc4)c3N(CC)C(=O)[C@H]2NC(=O)c2nccc(C(F)(F)F)n2)c1 [Compound I-243] | ≤ 200 | 200 to 1000 | 
6 | CCN1C(=O)[C@@H](NC(=O)c2cccc(C(F)(F)F)c2)[C@H](c2cccc(CNC(=O)C3=CCN(C)C3)c2)c2c(C)nn(-c3ccccc3)c21 [Compound I-244] | ≤ 200 | 1000 to 3000 | 
7 | CCN1C(=O)[C@@H](NC(=O)c2nccc(C(F)(F)F)n2)[C@H](c2cccc(NC(=O)/C=C/C(=O)N(C)C)c2)c2c(C)nn(-c3ccccc3)c21 [Compound I-245] | 1000 to 3000 | 1000 to 3000 | 
8 | C=C(CN1CCC12COC2)C(=O)NCc1cccc([C@@H]2c3cnn(-c4ccccc4)c3N(CC)C(=O)[C@H]2NC(=O)c2nccc(C(F)(F)F)n2)c1 [Compound I-246] | ≤ 200 |  | ≤ 200
9 | C=C(CN1CCC12COC2)C(=O)NCc1cccc([C@@H]2c3cnn(-c4ccccc4)c3N(CC)C(=O)[C@H]2NC(=O)c2ccn(C(F)(F)F)n2)c1 [Compound I-247] | ≤ 200 | 200 to 1000 | 
10 | C/C=C(\CN(C)C1COC1)C(=O)NCc1cccc([C@@H]2c3cnn(-c4ccccc4)c3N(CC)C(=O)[C@H]2NC(=O)c2ccn(C(F)(F)F)n2)c1 [Compound I-248] | ≤ 200 | 200 to 1000 | 
11 | CCN1C(=O)[C@@H](NC(=O)c2nccc(C(F)(F)F)n2)[C@H](c2cccc(C(=O)N3CCC[C@H]3C#N)c2)c2cnn(-c3ccccc3)c21 [Compound I-249] | 1000 to 3000 | 1000 to 3000 | 
12 | C/C=C(\CN1CCC12COC2)C(=O)Nc1cccc([C@@H]2c3cnn(-c4ccccc4)c3N(CC)C(=O)[C@H]2NC(=O)c2nccc(C(F)(F)F)n2)c1 [Compound I-251] | ≤ 200 | 1000 to 3000 | 
13 | C=C(CN1CC2CC(C1)O2)C(=O)N(C)Cc1cccc([C@@H]2c3cnn(-c4ccccc4)c3N(CC)C(=O)[C@H]2NC(=O)c2ccn(C(F)(F)F)n2)c1 [Compound I-253] | ≤ 200 | 1000 to 3000 | 
14 | C=C(CN(C)C1COC1)C(=O)N(C)Cc1cccc([C@@H]2c3cnn(-c4ccccc4)c3N(CC)C(=O)[C@H]2NC(=O)c2nccc(C(F)(F)F)n2)c1 [Compound I-254] |  | 1000 to 3000 | 
15 | CCN1C(=O)[C@@H](NC(=O)c2cccc(C(F)(F)F)c2)[C@H](c2cccc(CN(C)C/C=C/C(=O)N3CCCC3)c2)c2cnn(-c3ccccc3)c21 [Compound I-255] | 1000 to 3000 | 1000 to 3000 | 
16 | C=C(C(=O)NCc1cccc([C@@H]2c3cnn(-c4ccccc4)c3N(CC)C(=O)[C@H]2NC(=O)c2nccc(C(F)(F)F)n2)c1)C(C)N1CCC12COC2 (stereo partly drawn) [Compound I-256] | ≤ 200 | 200 to 1000 | 
17 | C=C(CN1CC2CC(C1)O2)C(=O)N(C)Cc1cccc([C@@H]2c3cnn(-c4ccccc4)c3N(CC)C(=O)[C@H]2NC(=O)c2ccn(C3CC3)n2)c1 [Compound I-258] |  | 1000 to 3000 | 
18 | C=C(CN1CC(F)(F)C1)C(=O)NCc1cccc([C@@H]2c3cnn(-c4ccccc4)c3N(CC)C(=O)[C@H]2NC(=O)c2nccc(C(F)(F)F)n2)c1 [Compound I-261] | ≤ 200 | 200 to 1000 | 
19 | CCN1C(=O)[C@@H](NC(=O)c2nccc(C(F)(F)F)n2)[C@H](c2cccc(CN3CC=CS3(=O)=O)c2)c2cnn(-c3ccccc3)c21 [Compound I-263, N-((4R,5S)-4-(3-((1,1-dioxidoisothiazol-2 (3H)-yl)methyl)phenyl)-7-ethyl-6-oxo-1-phenyl-4,5,6,7-tetrahydro-1H-pyrazolo[3,4-b]pyridin-5-yl)-4-(trifluoromethyl)pyrimidine-2-carboxamide] | 1000 to 3000 | 1000 to 3000 | 
20 | C=C(CN1CCCC1)C(=O)NCc1cccc([C@@H]2c3cnn(-c4ccccc4)c3N(CC)C(=O)[C@H]2NC(=O)c2cccc(C(F)(F)F)c2)c1 [Compound I-264] | ≤ 200 |  | ≤ 200

Row | Structure (SMILES) | IC50 [1] [nM] | IC50 [2] [nM] | IC50 [3] [nM]
21 | C=C(CN1CCOCC1)C(=O)NCc1cccc([C@@H]2c3cnn(-c4ccccc4)c3N(CC)C(=O)[C@H]2NC(=O)c2ccnn2C)c1 [Compound I-266] | 1000 to 3000 | 1000 to 3000 | 
22 | C=C(C(=O)NCc1cccc([C@@H]2c3cnn(-c4ccccc4)c3N(CC)C(=O)[C@H]2NC(=O)c2cccc(C(F)F)c2)c1)C(C)N(C)C1COC1 (stereo partly drawn) [Compound I-277] | ≤ 200 |  | ≤ 200
23 | C=C(C(=O)NCc1cccc([C@@H]2c3cnn(-c4ccccc4)c3N(CC)C(=O)[C@H]2NC(=O)c2csc(C)n2)c1)C(C)N(C)C1COC1 (stereo partly drawn) [Compound I-278] | ≤ 200 |  | ≤ 200
24 | C=C(CN1CC2(COC2)C1)C(=O)NCc1cccc([C@@H]2c3c(C)nn(-c4ccccc4)c3N(CC)C(=O)[C@H]2NC(=O)c2cccc(C(F)(F)F)c2)c1 [Compound I-283] | ≤ 200 |  | ≤ 200
25 | C/C=C(\CN1CCOCC1)C(=O)NCc1cccc([C@@H]2c3cnn(-c4ccccc4)c3N(CC)C(=O)[C@H]2NC(=O)c2ccn(C(F)(F)F)n2)c1 [Compound I-284] | ≤ 200 | 1000 to 3000 | 
26 | C=C(CN1CCOCC1)C(=O)NCc1cccc([C@H]2c3c(C)nn(-c4ccccc4)c3N(CC)C(=O)[C@@H]2NC(=O)c2cccc(C(F)(F)F)c2)c1 [Compound I-285] | ≤ 200 | 1000 to 3000 | 
27 | C=C(C(=O)N(C)Cc1cccc([C@@H]2c3cnn(-c4ccccc4)c3N(CC)C(=O)[C@H]2NC(=O)c2ccn(C3CC3)n2)c1)C(C)N1CC2CC(C1)O2 (stereo partly drawn) [Compound I-286] | ≤ 200 | 1000 to 3000 | 
28 | C=C(C(=O)NCc1cccc([C@@H]2c3cnn(-c4ccccc4)c3N(CC)C(=O)[C@H]2NC(=O)c2ccn(C(F)(F)F)n2)c1)C(C)N1CC2CC(C1)O2 (stereo partly drawn) [Compound I-287] | ≤ 200 |  | ≤ 200
29 | C/C=C(\CN1CCN(C2COC2)CC1)C(=O)NCc1cccc([C@@H]2c3cnn(-c4ccccc4)c3N(CC)C(=O)[C@H]2NC(=O)c2ccn(C3CC3)n2)c1 [Compound I-288] | ≤ 200 | 200 to 1000 | 
30 | C=C(CN1C2CCC1COC2)C(=O)NCc1cccc([C@@H]2c3cnn(-c4ccccc4)c3N(CC)C(=O)[C@H]2NC(=O)c2cccc(C(F)(F)F)c2)c1 [Compound I-289] | ≤ 200 |  | ≤ 200
31 | C=C(CN1CC2CC(C1)O2)C(=O)NCc1cccc([C@@H]2c3cnn(-c4ccccc4)c3N(CC)C(=O)[C@H]2NC(=O)c2cccc(C(F)(F)F)c2)c1 [Compound I-290] | ≤ 200 |  | ≤ 200
32 | C=C(CN1CC(O)C1)C(=O)NCc1cccc([C@@H]2c3cnn(-c4ccccc4)c3N(CC)C(=O)[C@H]2NC(=O)c2cccc(C(F)(F)F)c2)c1 [Compound I-291] | ≤ 200 |  | ≤ 200
33 | C=C(CN1CC2CCC(C1)O2)C(=O)NCc1cccc([C@@H]2c3cnn(-c4ccccc4)c3N(CC)C(=O)[C@H]2NC(=O)c2nccc(C(F)(F)F)n2)c1 [Compound I-292] | ≤ 200 |  | ≤ 200
34 | C=C(CN1CC2CCC1CO2)C(=O)NCc1cccc([C@@H]2c3cnn(-c4ccccc4)c3N(CC)C(=O)[C@H]2NC(=O)c2cccc(C(F)(F)F)c2)c1 (stereo partly drawn) [Compound I-293] | ≤ 200 |  | ≤ 200
35 | C=C(CN1CC2CC1CO2)C(=O)NCc1cccc([C@H]2c3c(C)nn(-c4ccccc4)c3N(CC)C(=O)[C@@H]2NC(=O)c2cccc(C(F)(F)F)c2)c1 (stereo partly drawn) [Compound I-294] | ≤ 200 | 200 to 1000 | 
36 | C=C(CN1CCOCC1)C(=O)N(C)Cc1cccc([C@@H]2c3cnn(-c4ccccc4)c3N(CC)C(=O)[C@H]2NC(=O)c2ccn(C(F)(F)F)n2)c1 [Compound I-295] | ≤ 200 | 1000 to 3000 | 
37 | C=C(C(=O)NCc1cccc([C@@H]2c3cnn(-c4ccccc4)c3N(CC)C(=O)[C@H]2NC(=O)c2ccn(C(F)(F)F)n2)c1)C(C)N1CCOCC1 (stereo partly drawn) [Compound I-296] | ≤ 200 |  | ≤ 200
38 | C=C(CN1CCOCC1)C(=O)NCc1cccc([C@@H]2c3cnn(-c4ccccc4)c3N(CC)C(=O)[C@H]2NC(=O)c2ccn(CC(F)(F)F)n2)c1 [Compound I-297] | ≤ 200 | 200 to 1000 | 
39 | C=C(CN1CCOCC1)C(=O)N[C@@H](C)c1cccc([C@@H]2c3cnn(-c4ccccc4)c3N(CC)C(=O)[C@H]2NC(=O)c2nccc(C(F)(F)F)n2)c1 [Compound I-299] | 1000 to 3000 | 1000 to 3000 | 
